These are literature values, as cited in US20080057122A1, “Acetaminophen pharmaceutical compositions” (priority 2006, published 2008).

For `CC(=O)Nc1ccc(O)cc1` [acetaminophen], the “time in which peak concentrations are reached” value (Darvocet-N 100 immediate release tablets) is no more than 2 h.
On to `CCC(=O)O[C@](Cc1ccccc1)(c1ccccc1)[C@H](C)CN(C)C` [propoxyphene], for which, under “in vivo”, the early half-life is 6 to 12 h and the terminal half-life entry is “approximately 20 hours”.
